Laboratory results reported in US20020028807A1, “Non-nucleoside reverse transcriptase inhibitors” (priority 2000, published 2002).

How the values were obtained:
[1] = system: HIV coding for mutant reverse transcriptase K103N/P225H; test: ELISA (p24) assay of HIV replication in C8166 cell culture, K103N/P225H virus; type: cell-based, HIV-1; settings: Human immunodeficiency virus 1, C8166, 72 h, read-out: EC50 K103N/P225H
Procedure: (§1) Compounds of the invention were tested for their ability to inhibit HIV replication in cell culture in a 96-well plate assay. Complete RPMI 1640, consisting of RPMI 1640+10% fetal bovine serum, 10 μg/ml gentamycin and 10 μM β-mercaptoethanol was used for dilution of the compound as well as cell growth medium. The T lymphocyte cell line C8166 was infected at a multiplicity of infection of 0.001 with viruses coding for wild-type and mutant reverse transcriptase. Cells were then incubated for three days in the presence of serial dilutions of the compounds of the invention. The supernatant was pooled from eight replica wells and the concentration of extracellular p24 was determined using a commercially available HIV-1 p24 antigen assay kit (Beckman-Coulter®). The level of inhibition (% inhibition) was calculated with the following equation: [formula]

HIV-1 RT K103N/P225H = molecular target: T1, HIV-1 RT K103N/P225H (Human immunodeficiency virus type 1 group M subtype B, UniProt P03366, K702N/P824H); test: Reverse transcriptase (RT) assay, K103N/P225H mutant; type: biochemical
T1 construct: an HIV RT clone pKRT2 containing only the RT p66 gene regulated by the lac operon/trc promoter; made in house; host or cells: E. coli JM109, vector pKK233-2
Text: (§2) Among the enzymes for which Human Immunodeficiency Virus (HIV-1) encodes is a reverse transcriptase (1), so-named because it transcribes a DNA copy from an RNA template. This activity can be quantitatively measured in a cell-free enzyme assay and is based upon the observation that reverse transcriptase is able to use a synthetic template poly r(C) primed with a biotinylated oligo d(G) to transcribe a radio-labelled DNA strand utilising 3H-dGTP as a substrate. The assay described below utilises the wild-type enzyme (which is the predominant form of the enzyme observed in patients infected with HIV-1) and can also be used with mutant RT enzymes (for example, Y181C, prepared by site-directed mutagenesis in which the tyrosine residue at codon 181 has been replaced by a cysteine residue) in analogous assay conditions. This assay allows compounds to be evaluated for their effectiveness at inhibiting the mutant enzymes.
(§3) Some HIV-1 IIIB clone BH10 RT mutants were provided by Dr. C.-K. Shih (Boehringer Ingelheim Pharmaceutials Inc., U.S.A.) in the vector pKK233-2 (Pharmacia). Briefly an HIV RT clone pKRT2 containing only the RT p66 gene regulated by the lac operon/trc promoter was obtained from Dr. W. Summers (Yale University) (2). A variety of specific amino acid substitutions were introduced into the wild-type RT gene by site-directed mutagenesis. RT clones were subcloned into the pKK233-2 bacterial expression vector. Clones provided included wild-type, Val106Ala, Tyr181Cys, Tyr188Cys, Tyr188Leu, Gly190Ala and Pro236Leu. Others were made in-house by site-directed mutagenesis of the pKK233-2 RT clones including Lys103Asn, Lys103Asn/Tyr181Cys, Lys103Asn/Leu100Ile, Lys103Asn/Pro225His, and Lys103Asn/Val108Ile.
(§4) Purification of recombinant reverse transcriptase was performed using a combination of methods previously described (3). A single colony from a fresh plate of transformed JM109 cells was used to initiate growth of a pre-culture grown o/n at 37° C. Two liters of growth medium were inoculated with this pre-culture. At OD600˜1.5 (5-6 h at 37° C.), RT gene expression was induced with IPTG (1 mM final), and the fermentation was continued for a few more hours at 37° C. After centrifugation, supernatants were discarded while cell pellets were pooled and stored at −80° C. until purification. Cells were thawed at 4° C. overnight and suspended in lysis buffer (MES 50 mM pH 6, EDTA 1 mM, 10% v/v glyerol, 0.02% w/v OBG, 0.02% w/v sodium azide). Lysozyme was added and the mixture was incubated on ice for 40 minutes. After homogenization using a bounce in presence of lysozyme and sonication, the cells were centrifuged for 30 minutes. Supernatant (S1) was saved and stored at 4° C. The centrifuged pellet was resuspended in extraction buffer (MES 50 mM pH 6, KPO4 50 mM pH 6, KCl 100 mM, 10% v/v glycerol, 0.02% w/v OBG, 0.02% w/v sodium axide) and stirred for 30 minutes at 4° C. This second mixture was centrifuged again and the supernatant (S2) was saved. The above procedure was repeated 2 more times saving supernatants S3 and S4 and one last extraction was performed overnight (S5). Polymin P (0.005% final) was added to the combined supernatants to remove nucleic acids. This solution was stirred for 75 minutes at 4° C. and centrifuged for 1 h. The supernatant (SS1) was precipitated on ice with 20% w/v ammonium sulfate and stirred for 1 h at 4° C. The mixture was then centrifuged and the resulting supernatant (SS2) was precipitated with additional 40% w/v ammonium sulfate (60% total), stirred for 1 h and centrifuged again. The final pellet (P1) was stored overnight at 4° C. before undergoing purification the following day. All steps of the purification were performed at 4° C. unless otherwise stated.
(§5) Pellet (P1) was resuspended into MES 50 mM pH 6, KPO4 10 mM pH 6, KCl 100 mM, 10% v/v glycerol, 0.02% w/v OBG, 0.02% w/v sodium azide. The suspension was dialysis against the same buffer overnight using 12-14 kD MWCO dialysis tubing. […]

[2] = system: HIV coding for mutant reverse transcriptase K103N/V108I; test: ELISA (p24) assay of HIV replication in C8166 cell culture, K103N/V108I virus; type: cell-based, HIV-1; settings: Human immunodeficiency virus 1, C8166, 72 h, read-out: EC50 K103N/V108I
Procedure: as §1

HIV-1 RT Y188L = molecular target: T2, HIV-1 RT Y188L (Human immunodeficiency virus type 1 group M subtype B, UniProt P03366, Y787L); test: Reverse transcriptase (RT) assay, Y188L mutant; type: biochemical
T2 construct: an HIV RT clone pKRT2 containing only the RT p66 gene regulated by the lac operon/trc promoter; made in house; host or cells: E. coli JM109, vector pKK233-2
Text: as §2, §3, §4, §5

HIV-1 RT K103N = molecular target: T3, HIV-1 RT K103N (Human immunodeficiency virus type 1 group M subtype B, UniProt P03366, K702N); test: Reverse transcriptase (RT) assay, K103N mutant; type: biochemical
T3 construct: an HIV RT clone pKRT2 containing only the RT p66 gene regulated by the lac operon/trc promoter; made in house; host or cells: E. coli JM109, vector pKK233-2
Text: as §2, §3, §4, §5

[3] = system: HIV coding for mutant reverse transcriptase V106A; test: ELISA (p24) assay of HIV replication in C8166 cell culture, V106A virus; type: cell-based, HIV-1; settings: Human immunodeficiency virus 1, C8166, 72 h, read-out: EC50 V106A
Procedure: as §1

HIV-1 RT K103N/L100I = molecular target: T4, HIV-1 RT K103N/L100I (Human immunodeficiency virus type 1 group M subtype B, UniProt P03366, K702N/L699I); test: Reverse transcriptase (RT) assay, K103N/L100I mutant; type: biochemical
T4 construct: an HIV RT clone pKRT2 containing only the RT p66 gene regulated by the lac operon/trc promoter; made in house; host or cells: E. coli JM109, vector pKK233-2
Text: as §2, §3, §4, §5

HIV-1 RT K103N/Y181C = molecular target: T5, HIV-1 RT K103N/Y181C (Human immunodeficiency virus type 1 group M subtype B, UniProt P03366, K702N/Y780C); test: Reverse transcriptase (RT) assay, K103N/Y181C mutant; type: biochemical
T5 construct: an HIV RT clone pKRT2 containing only the RT p66 gene regulated by the lac operon/trc promoter; made in house; host or cells: E. coli JM109, vector pKK233-2
Text: as §2, §3, §4, §5

HIV-1 RT V106A = molecular target: T6, HIV-1 RT V106A (Human immunodeficiency virus type 1 group M subtype B, UniProt P03366, V705A); test: Reverse transcriptase (RT) assay, V106A mutant; type: biochemical
T6 construct: an HIV RT clone pKRT2 containing only the RT p66 gene regulated by the lac operon/trc promoter; made in house; host or cells: E. coli JM109, vector pKK233-2
Text: as §2, §3, §4, §5

[4] = system: HIV coding for wild-type reverse transcriptase (WT RT); test: ELISA (p24) assay of HIV replication in C8166 cell culture, wild-type RT virus; type: cell-based, HIV-1; settings: Human immunodeficiency virus 1, C8166, 72 h, read-out: EC50 WT RT
Procedure: as §1

HIV-1 RT Y181C = molecular target: T7, HIV-1 RT Y181C (Human immunodeficiency virus type 1 group M subtype B, UniProt P03366, Y780C); test: Reverse transcriptase (RT) assay, Y181C mutant; type: biochemical
T7 construct: an HIV RT clone pKRT2 containing only the RT p66 gene regulated by the lac operon/trc promoter; made in house; host or cells: E. coli JM109, vector pKK233-2
Text: as §2, §3, §4, §5

[5] = system: HIV coding for mutant reverse transcriptase K103N; test: ELISA (p24) assay of HIV replication in C8166 cell culture, K103N virus; type: cell-based, HIV-1; settings: Human immunodeficiency virus 1, C8166, 72 h, read-out: EC50 K103N
Procedure: as §1

HIV-1 RT K103N/V108I = molecular target: T8, HIV-1 RT K103N/V108I (Human immunodeficiency virus type 1 group M subtype B, UniProt P03366, K702N/V707I); test: Reverse transcriptase (RT) assay, K103N/V108I mutant; type: biochemical
T8 construct: an HIV RT clone pKRT2 containing only the RT p66 gene regulated by the lac operon/trc promoter; made in house; host or cells: E. coli JM109, vector pKK233-2
Text: as §2, §3, §4, §5

[6] = system: HIV coding for mutant reverse transcriptase K103N/L100I; test: ELISA (p24) assay of HIV replication in C8166 cell culture, K103N/L100I virus; type: cell-based, HIV-1; settings: Human immunodeficiency virus 1, C8166, 72 h, read-out: EC50 K103N/L100I
Procedure: as §1

HIV-1 RT wild-type (WT) = molecular target: T9, HIV-1 RT wild-type (WT) (Human immunodeficiency virus type 1 group M subtype B, UniProt P03366); test: Reverse transcriptase (RT) assay, wild-type enzyme; type: biochemical
T9 construct: an HIV RT clone pKRT2 containing only the RT p66 gene regulated by the lac operon/trc promoter; made in house; host or cells: E. coli JM109, vector pKK233-2
Text: as §2, §3, §4, §5

[7] = system: HIV coding for mutant reverse transcriptase Y181C; test: ELISA (p24) assay of HIV replication in C8166 cell culture, Y181C virus; type: cell-based, HIV-1; settings: Human immunodeficiency virus 1, C8166, 72 h, read-out: EC50 Y181C
Procedure: as §1

HIV-1 RT G190A = molecular target: T10, HIV-1 RT G190A (Human immunodeficiency virus type 1 group M subtype B, UniProt P03366, G789A); test: Reverse transcriptase (RT) assay, G190A mutant; type: biochemical
T10 construct: an HIV RT clone pKRT2 containing only the RT p66 gene regulated by the lac operon/trc promoter; made in house; host or cells: E. coli JM109, vector pKK233-2
Text: as §2, §3, §4, §5

[8] = system: HIV coding for mutant reverse transcriptase Y188L; test: ELISA (p24) assay of HIV replication in C8166 cell culture, Y188L virus; type: cell-based, HIV-1; settings: Human immunodeficiency virus 1, C8166, 72 h, read-out: EC50 Y188L
Procedure: as §1

[9] = system: HIV coding for mutant reverse transcriptase K103N/Y181C; test: ELISA (p24) assay of HIV replication in C8166 cell culture, K103N/Y181C virus; type: cell-based, HIV-1; settings: Human immunodeficiency virus 1, C8166, 72 h, read-out: EC50 K103N/Y181C
Procedure: as §1

HIV-1 RT Y188C = molecular target: T11, HIV-1 RT Y188C (Human immunodeficiency virus type 1 group M subtype B, UniProt P03366, Y787C); test: Reverse transcriptase (RT) assay, Y188C mutant; type: biochemical
T11 construct: an HIV RT clone pKRT2 containing only the RT p66 gene regulated by the lac operon/trc promoter; made in house; host or cells: E. coli JM109, vector pKK233-2
Text: as §2, §3, §4, §5

| SMILES | EC50 [1] [nM] | IC50 (HIV-1 RT K103N/P225H) [nM] | EC50 [2] [nM] | IC50 (HIV-1 RT Y188L) [nM] | IC50 (HIV-1 RT K103N) [nM] | EC50 [3] [nM] | IC50 (HIV-1 RT K103N/L100I) [nM] | IC50 (HIV-1 RT K103N/Y181C) [nM] | IC50 (HIV-1 RT V106A) [nM] | EC50 [4] [nM] | IC50 (HIV-1 RT Y181C) [nM] | EC50 [5] [nM] | IC50 (HIV-1 RT K103N/V108I) [nM] | EC50 [6] [nM] | IC50 (HIV-1 RT wild-type (WT)) [nM] | EC50 [7] [nM] | IC50 (HIV-1 RT G190A) [nM] | EC50 [8] [nM] | EC50 [9] [nM] | IC50 (HIV-1 RT Y188C) [nM] |
| --- | --- | --- | --- | --- | --- | --- | --- | --- | --- | --- | --- | --- | --- | --- | --- | --- | --- | --- | --- | --- |
| CCN1c2ncc(CCOc3cc[n+]([O-])c4ccccc34)cc2C(=O)Nc2c(C)ccnc21 [compound 12, 5,11-Dihydro-11-ethyl-4-methyl-8-{2-{(1-oxido-4-quinolinyl)oxy}ethyl}-6H-dipyrido[3,2-b:2′,3′-e][1,4]diazepin-6-one] | 1.5 | 38 | 5 | > 10000 | 31 | 12.4 | 124 | 212 | 121 | 0.26 | 38 | 2.8 | 75 | 2.9 | 12 | 2.7 | – | – | – | – |
| CCN1c2ncc(CCOc3cc[n+]([O-])c4ccccc34)cc2C(=O)N(C)c2ccc(C)nc21 [compound 28, 2,5-Dimethyl-5,11-dihydro-11-ethyl-8-{2-{(1-oxido-4-quinolinyl)oxy}ethyl}-6H-dipyrido[3,2-b:2′,3′-e][1,4]diazepin-6-one] | – | 25 | – | 1190 | – | 42 | 28 | 141 | 605 | 1.3 | – | 2.3 | 35 | – | 19 | 2.6 | 25 | 70 | 7.5 | 9 |
